In ChEMBL document CHEMBL5291721, “A preclinical secondary pharmacology resource illuminates target-adverse drug reaction associations of marketed drugs” (Nat Commun, 2023) one finds AC50 data, which are given here for 21 molecules.

What is called AC50 is the concentration giving half of the maximal activity seen.

One test deals with Mu-type opioid receptor (Homo sapiens, UniProt P35372). Put plainly: biochemical. The test is classed as functional.
The target in test [1] is T1, Muscarinic acetylcholine receptor M2 (Homo sapiens, UniProt P08172).
T1 sequence (P08172 whole entry): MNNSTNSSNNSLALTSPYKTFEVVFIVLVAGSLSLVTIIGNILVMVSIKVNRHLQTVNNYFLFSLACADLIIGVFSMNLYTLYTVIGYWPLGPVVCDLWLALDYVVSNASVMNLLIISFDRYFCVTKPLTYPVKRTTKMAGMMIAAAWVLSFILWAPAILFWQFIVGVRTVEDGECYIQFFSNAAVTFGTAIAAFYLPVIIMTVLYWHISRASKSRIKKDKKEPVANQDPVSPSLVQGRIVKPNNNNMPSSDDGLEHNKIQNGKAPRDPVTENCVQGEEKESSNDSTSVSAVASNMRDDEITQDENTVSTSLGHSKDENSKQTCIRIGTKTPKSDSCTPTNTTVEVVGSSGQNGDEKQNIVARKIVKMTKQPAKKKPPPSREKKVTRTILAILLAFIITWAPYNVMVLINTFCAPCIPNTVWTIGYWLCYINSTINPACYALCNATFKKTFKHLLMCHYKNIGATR
The test is classed as functional, cell-based.

For test [2], the target named is cGMP-inhibited 3',5'-cyclic phosphodiesterase 3A (Homo sapiens, UniProt Q14432). Type of test: functional.
Sequence of cGMP-inhibited 3',5'-cyclic phosphodiesterase 3A (Q14432 whole entry): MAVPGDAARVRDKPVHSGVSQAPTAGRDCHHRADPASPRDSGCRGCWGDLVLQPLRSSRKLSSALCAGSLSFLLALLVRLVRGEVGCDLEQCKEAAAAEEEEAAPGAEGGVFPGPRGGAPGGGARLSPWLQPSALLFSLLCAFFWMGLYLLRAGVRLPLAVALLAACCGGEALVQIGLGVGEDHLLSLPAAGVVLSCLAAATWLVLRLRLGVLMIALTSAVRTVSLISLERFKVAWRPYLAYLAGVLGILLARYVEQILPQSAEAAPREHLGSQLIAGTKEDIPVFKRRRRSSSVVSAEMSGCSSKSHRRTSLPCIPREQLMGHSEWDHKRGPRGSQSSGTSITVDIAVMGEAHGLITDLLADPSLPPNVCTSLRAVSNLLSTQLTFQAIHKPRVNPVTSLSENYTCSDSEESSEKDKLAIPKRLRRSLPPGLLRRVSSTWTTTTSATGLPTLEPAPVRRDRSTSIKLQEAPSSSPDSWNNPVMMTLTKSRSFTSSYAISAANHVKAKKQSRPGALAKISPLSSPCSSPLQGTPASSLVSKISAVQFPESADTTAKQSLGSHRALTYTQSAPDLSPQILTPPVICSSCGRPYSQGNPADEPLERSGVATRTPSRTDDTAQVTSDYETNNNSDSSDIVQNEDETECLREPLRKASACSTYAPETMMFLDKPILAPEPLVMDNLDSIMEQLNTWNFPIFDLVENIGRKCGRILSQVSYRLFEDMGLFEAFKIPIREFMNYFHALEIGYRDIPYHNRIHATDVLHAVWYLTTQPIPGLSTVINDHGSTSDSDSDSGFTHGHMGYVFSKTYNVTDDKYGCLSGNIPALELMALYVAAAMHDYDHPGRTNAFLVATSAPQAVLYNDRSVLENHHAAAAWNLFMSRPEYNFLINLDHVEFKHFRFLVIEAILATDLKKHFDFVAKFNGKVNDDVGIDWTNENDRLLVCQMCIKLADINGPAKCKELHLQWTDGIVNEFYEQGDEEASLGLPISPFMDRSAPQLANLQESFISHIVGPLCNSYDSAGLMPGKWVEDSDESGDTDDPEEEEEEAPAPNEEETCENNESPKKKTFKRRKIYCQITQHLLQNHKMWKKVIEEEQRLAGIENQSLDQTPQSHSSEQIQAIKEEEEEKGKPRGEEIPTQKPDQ
The target of test [3] is 3',5'-cyclic-AMP phosphodiesterase 4D (Homo sapiens, UniProt Q08499). The test is classed as functional.
Sequence of 3',5'-cyclic-AMP phosphodiesterase 4D (Q08499 whole entry): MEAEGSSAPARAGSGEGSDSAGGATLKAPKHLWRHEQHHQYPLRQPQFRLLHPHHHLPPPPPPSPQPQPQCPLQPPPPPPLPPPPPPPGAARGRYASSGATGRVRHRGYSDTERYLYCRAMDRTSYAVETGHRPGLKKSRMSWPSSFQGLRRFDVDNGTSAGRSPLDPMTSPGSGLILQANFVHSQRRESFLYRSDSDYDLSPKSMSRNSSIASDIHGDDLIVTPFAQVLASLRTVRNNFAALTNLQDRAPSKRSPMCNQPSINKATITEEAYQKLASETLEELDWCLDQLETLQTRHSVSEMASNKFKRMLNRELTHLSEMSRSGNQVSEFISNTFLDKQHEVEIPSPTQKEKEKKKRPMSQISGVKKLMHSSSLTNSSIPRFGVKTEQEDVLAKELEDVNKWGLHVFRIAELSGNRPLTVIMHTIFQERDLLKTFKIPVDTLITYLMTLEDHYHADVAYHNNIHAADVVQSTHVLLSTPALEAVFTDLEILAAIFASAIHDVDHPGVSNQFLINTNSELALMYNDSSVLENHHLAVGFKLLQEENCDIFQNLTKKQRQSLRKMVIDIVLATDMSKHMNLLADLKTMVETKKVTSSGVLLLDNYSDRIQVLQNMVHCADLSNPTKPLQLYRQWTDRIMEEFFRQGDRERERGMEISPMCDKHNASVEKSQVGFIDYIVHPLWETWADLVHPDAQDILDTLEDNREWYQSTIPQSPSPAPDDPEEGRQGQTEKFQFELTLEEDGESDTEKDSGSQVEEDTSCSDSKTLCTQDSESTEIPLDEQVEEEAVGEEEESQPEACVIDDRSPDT
The next test concerns the target T2, Estrogen receptor (Homo sapiens, UniProt P03372).
T2 sequence (P03372 whole entry): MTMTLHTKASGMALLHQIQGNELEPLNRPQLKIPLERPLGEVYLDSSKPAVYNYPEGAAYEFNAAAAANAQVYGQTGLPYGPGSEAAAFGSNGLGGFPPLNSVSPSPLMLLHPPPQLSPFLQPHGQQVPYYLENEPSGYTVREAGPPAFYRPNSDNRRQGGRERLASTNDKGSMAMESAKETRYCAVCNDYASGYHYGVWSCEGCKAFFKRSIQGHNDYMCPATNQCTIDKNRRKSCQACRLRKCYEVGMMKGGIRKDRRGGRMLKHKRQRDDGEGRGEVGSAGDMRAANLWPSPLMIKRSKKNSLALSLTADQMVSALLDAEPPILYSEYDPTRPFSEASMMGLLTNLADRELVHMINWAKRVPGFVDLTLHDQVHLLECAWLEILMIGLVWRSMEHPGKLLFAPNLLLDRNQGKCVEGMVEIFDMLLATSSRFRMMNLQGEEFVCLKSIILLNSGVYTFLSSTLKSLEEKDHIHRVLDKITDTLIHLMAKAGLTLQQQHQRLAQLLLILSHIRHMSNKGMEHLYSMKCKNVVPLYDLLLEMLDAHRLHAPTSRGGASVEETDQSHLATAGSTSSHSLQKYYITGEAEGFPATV

The target in another test is T3, Glucocorticoid receptor (Homo sapiens, UniProt P04150).
T3 sequence (P04150 whole entry): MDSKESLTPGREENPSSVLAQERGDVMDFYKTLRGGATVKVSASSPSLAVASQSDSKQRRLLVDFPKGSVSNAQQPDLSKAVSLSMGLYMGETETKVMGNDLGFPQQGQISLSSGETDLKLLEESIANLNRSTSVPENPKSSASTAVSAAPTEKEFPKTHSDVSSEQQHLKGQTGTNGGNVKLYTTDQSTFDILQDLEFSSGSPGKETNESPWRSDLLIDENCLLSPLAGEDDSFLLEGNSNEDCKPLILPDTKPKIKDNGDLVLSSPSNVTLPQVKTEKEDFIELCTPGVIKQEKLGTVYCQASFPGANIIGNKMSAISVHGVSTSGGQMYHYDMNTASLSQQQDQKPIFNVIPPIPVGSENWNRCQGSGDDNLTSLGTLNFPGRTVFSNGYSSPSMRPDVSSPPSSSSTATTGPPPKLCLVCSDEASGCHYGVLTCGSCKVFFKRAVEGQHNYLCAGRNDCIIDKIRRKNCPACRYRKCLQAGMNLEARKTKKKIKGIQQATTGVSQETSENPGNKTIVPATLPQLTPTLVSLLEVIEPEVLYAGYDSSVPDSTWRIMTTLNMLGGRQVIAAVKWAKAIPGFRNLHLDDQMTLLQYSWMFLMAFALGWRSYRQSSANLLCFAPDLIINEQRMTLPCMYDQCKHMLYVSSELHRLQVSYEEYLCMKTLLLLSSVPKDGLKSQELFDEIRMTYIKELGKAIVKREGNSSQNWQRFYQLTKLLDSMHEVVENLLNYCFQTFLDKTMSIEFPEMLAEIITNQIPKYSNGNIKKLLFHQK

Test [4] deals with T4, Alpha-1A adrenergic receptor (Homo sapiens, UniProt P35348).
T4 sequence (P35348 whole entry): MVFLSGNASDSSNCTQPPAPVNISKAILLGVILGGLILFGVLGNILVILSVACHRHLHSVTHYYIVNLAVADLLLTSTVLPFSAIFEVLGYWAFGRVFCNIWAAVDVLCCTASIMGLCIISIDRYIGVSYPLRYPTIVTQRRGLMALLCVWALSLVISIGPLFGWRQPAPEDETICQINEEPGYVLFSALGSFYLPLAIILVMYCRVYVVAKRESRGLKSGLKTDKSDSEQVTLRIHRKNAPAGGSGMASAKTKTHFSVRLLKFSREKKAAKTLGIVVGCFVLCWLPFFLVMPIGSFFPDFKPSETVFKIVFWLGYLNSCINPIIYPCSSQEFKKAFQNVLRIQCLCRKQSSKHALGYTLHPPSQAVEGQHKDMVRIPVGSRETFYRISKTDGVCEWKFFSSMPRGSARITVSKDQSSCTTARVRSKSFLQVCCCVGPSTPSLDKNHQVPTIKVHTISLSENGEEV
The test is classed as functional, cell-based.

Each structure is given as a SMILES string.
Note: assay procedure not described here.

Sequence of Mu-type opioid receptor (P35372 whole entry): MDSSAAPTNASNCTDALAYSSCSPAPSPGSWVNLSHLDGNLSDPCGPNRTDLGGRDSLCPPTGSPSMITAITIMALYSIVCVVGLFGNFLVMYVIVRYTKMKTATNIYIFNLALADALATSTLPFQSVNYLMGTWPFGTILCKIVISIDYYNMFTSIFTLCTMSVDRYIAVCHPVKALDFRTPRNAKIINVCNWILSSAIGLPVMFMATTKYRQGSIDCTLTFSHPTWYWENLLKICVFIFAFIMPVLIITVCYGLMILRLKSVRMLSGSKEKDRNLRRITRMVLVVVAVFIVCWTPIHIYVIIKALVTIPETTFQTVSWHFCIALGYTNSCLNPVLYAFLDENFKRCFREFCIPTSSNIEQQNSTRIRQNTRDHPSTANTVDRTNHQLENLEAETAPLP

As for `CCCCN1CCCCC1C(=O)Nc1c(C)cccc1C` (centres undefined) [BUPIVACAINE], the AC50 (on Mu-type opioid receptor; in test [1]; in test [2]; in test [3]) was above 30 µM each time.
As for `NC(=O)C[S+]([O-])C(c1ccccc1)c1ccccc1` (centres undefined) [MODAFINIL], the AC50 in test [1] is above 10 µM; on Estrogen receptor, above 30 µM; in test [2], above 30 µM; in test [3], above 30 µM; on Glucocorticoid receptor, above 30 µM; in test [4] it was above 30 µM.
For `COc1c(C)c2c(c(O)c1C/C=C(\C)CCC(=O)OCCN1CCOCC1)C(=O)OC2` [MYCOPHENOLATE MOFETIL], the AC50 is above 30 µM on Mu-type opioid receptor; above 30 µM in test [1]; above 30 µM on Estrogen receptor; 17 µM in test [2]; above 30 µM in test [3]; above 30 µM at Glucocorticoid receptor. The molecule also had an AC50 in test [4] above 30 µM.
`CC/C=C\C/C=C\C/C=C\CCCCCCCC(=O)O` [LINOLENIC ACID]: the AC50 (at Mu-type opioid receptor; in test [1]; in test [2]; in test [3]; in test [4]) was above 30 µM throughout.
On to `CCN1CCC[C@H]1CNC(=O)c1cc(S(N)(=O)=O)ccc1OC` [LEVOSULPIRIDE], for which the AC50 in test [1] was above 10 µM; in test [2], above 30 µM; in test [3] it was above 30 µM; on Glucocorticoid receptor it was above 30 µM; in test [4], above 30 µM.
On to `COc1ccccc1OCC(O)COC(N)=O` (centres undefined) [METHOCARBAMOL], for which the AC50 was above 10 µM in test [1]; above 30 µM on Estrogen receptor; above 30 µM in test [2]; above 30 µM in test [3]; above 30 µM at Glucocorticoid receptor.
Turning to `COc1c(N2CCNC(C)C2)c(F)cc2c(=O)c(C(=O)O)cn(C3CC3)c12` (centres undefined) [GATIFLOXACIN], the AC50 on Mu-type opioid receptor was 28 µM; in test [1], above 10 µM; in test [2], above 30 µM; in test [3], above 30 µM; at Glucocorticoid receptor, above 10 µM.
On to `C#CCN[C@@H]1CCc2ccccc21` [RASAGILINE], for which the AC50 (at Mu-type opioid receptor; in test [1]; at Estrogen receptor; in test [2]; in test [3]) was above 30 µM each time.
In the case of `C#CCN(C)[C@H](C)Cc1ccccc1` [SELEGILINE], the AC50 was above 10 µM in test [1]; above 10 µM on Estrogen receptor; above 30 µM in test [2]; above 30 µM in test [3]; above 10 µM on Glucocorticoid receptor; above 30 µM in test [4].
For `C[C@]12CCC(=O)C=C1CC[C@@H]1[C@@H]2CC[C@@]2(C)[C@H]1CC[C@]2(C)O` [METHYLTESTOSTERONE], the AC50 was above 30 µM on Mu-type opioid receptor; above 30 µM in test [1]; above 30 µM on Estrogen receptor; above 30 µM in test [2]; above 30 µM in test [3]; 0.44 µM at Glucocorticoid receptor. The same molecule had an AC50 in test [4] of 27 µM.
Take `CN[C@@H]1[C@H](O)[C@H](NC)[C@H]2O[C@@]3(O)C(=O)C[C@@H](C)O[C@H]3O[C@@H]2[C@H]1O` [SPECTINOMYCIN]: the AC50 is above 10 µM in test [1]; above 10 µM at Estrogen receptor; above 30 µM in test [2]; above 30 µM in test [3]; above 10 µM at Glucocorticoid receptor.
Take `COc1ccc2c(c1)c(CC(=O)OCC(=O)O)c(C)n2C(=O)c1ccc(Cl)cc1` [ACEMETACIN]: the AC50 (on Mu-type opioid receptor; in test [1]; in test [2]; in test [3]; at Glucocorticoid receptor; in test [4]) was above 30 µM each time.
`CN[C@@H](C)[C@H](O)c1ccccc1` [EPHEDRINE]: the AC50 was above 10 µM in test [1]; above 30 µM at Estrogen receptor; above 30 µM in test [2]; above 30 µM in test [3]; above 30 µM at Glucocorticoid receptor.
As to `Cc1cc2c(OCC(CNC(C)(C)C)OC(=O)c3ccccc3)cccc2[nH]1` (centres undefined) [BOPINDOLOL], the AC50 (at Mu-type opioid receptor; in test [1]; on Estrogen receptor; in test [2]; in test [3]; at Glucocorticoid receptor) was above 30 µM in each case. The AC50 in test [4] was above 30 µM.
On to `CCNC(C)Cc1cccc(C(F)(F)F)c1` (centres undefined) [FENFLURAMINE], for which the AC50 (in test [1]; on Estrogen receptor; in test [2]; in test [3]; on Glucocorticoid receptor) was above 30 µM each time.
For `CC(=O)O[C@@]12CO[C@@H]1C[C@H](O)[C@@]1(C)C(=O)[C@H](O)C3=C(C)[C@@H](OC(=O)[C@H](O)[C@@H](NC(=O)OC(C)(C)C)c4ccccc4)C[C@@](O)([C@@H](OC(=O)c4ccccc4)[C@H]21)C3(C)C` [DOCETAXEL ANHYDROUS], the AC50 (on Mu-type opioid receptor; in test [1]; at Estrogen receptor; in test [2]; in test [3]; on Glucocorticoid receptor) was above 30 µM each time.
For `CCCOc1ccc(C(=O)OCCN(CC)CC)cc1N` [PROPARACAINE], the AC50 (at Mu-type opioid receptor; in test [1]; in test [2]; in test [3]; on Glucocorticoid receptor; in test [4]) was above 30 µM in each case.
For `CN1C(=O)COc2c(C(=O)NC3CN4CCC3CC4)cc(Cl)cc21` (centres undefined) [AZASETRON], the half-maximal activity concentration (AC50) is above 30 µM on Mu-type opioid receptor; above 30 µM in test [1]; above 30 µM at Estrogen receptor; above 10 µM in test [2]; 4.1 µM in test [3]; above 30 µM in test [4].
In the case of `CC(C)c1c(C(=O)Nc2ccccc2)c(-c2ccccc2)c(-c2ccc(F)cc2)n1CC[C@@H](O)C[C@@H](O)CC(=O)O` [ATORVASTATIN], the values for the AC50 in test [2], in test [3] and in test [4] were above 10 µM, above 30 µM and above 30 µM, respectively.
Consider `CCN(CC)CCOC(=O)c1ccc(N)cc1` [PROCAINE], for which the AC50 in test [1] is above 10 µM; in test [2], above 10 µM; in test [3] it was above 10 µM; in test [4], above 30 µM.
`COC(=O)[C@H]1[C@@H](OC(=O)c2ccccc2)C[C@@H]2CC[C@H]1N2C` [COCAINE]: the AC50 (on Mu-type opioid receptor; in test [1]; on Estrogen receptor; in test [2]; in test [3]; in test [4]) was above 30 µM each time.
